# Source: US20220175889A1, “NEW DOSAGE REGIMEN FOR INHALED VASOACTIVE INTESTINAL POLYPEPTIDE” (priority 2020, published 2022)
# Key:
# [1] = tested on: histamine-induced bronchoconstriction; conditions: single 375 μg inhaled; cited from earlier work
# [2] = tested on: patients with COVID-19 pulmonary involvement
# [3] = assay type: physicochemical; conditions: M-neb mobile mesh nebulizer MN-300/9
smiles,measurement,setting,value
CC[C@H](C)[C@H](NC(=O)[C@H](CO)NC(=O)[C@H](CC(N)=O)NC(=O)[C@H](CC(C)C)NC(=O)[C@H](Cc1ccc(O)cc1)NC(=O)[C@H](CCCCN)NC(=O)[C@H](CCCCN)NC(=O)[C@@H](NC(=O)[C@H](C)NC(=O)[C@H](CCSC)NC(=O)[C@H](CCC(N)=O)NC(=O)[C@H](CCCCN)NC(=O)[C@H](CCCNC(=N)N)NC(=O)[C@H](CC(C)C)NC(=O)[C@H](CCCNC(=N)N)NC(=O)[C@@H](NC(=O)[C@H](Cc1ccc(O)cc1)NC(=O)[C@H](CC(N)=O)NC(=O)[C@H](CC(=O)O)NC(=O)[C@@H](NC(=O)[C@H](Cc1ccccc1)NC(=O)[C@@H](NC(=O)[C@H](C)NC(=O)[C@H](CC(=O)O)NC(=O)[C@H](CO)NC(=O)[C@@H](N)Cc1c[nH]cn1)C(C)C)[C@@H](C)O)[C@@H](C)O)C(C)C)C(=O)N[C@@H](CC(C)C)C(=O)N[C@@H](CC(N)=O)C(N)=O [Aviptadil],Protection against histamine-induced bronchoconstriction,[1],the activity could not be shown
same,Side effects,[1],no side effects were reported
same,Tolerability,"[2]; human, in vivo",well tolerated
same,Distribution of AEs (%),"[2]; share of the 47 adverse events observed in Treatment Group, 16 patients treatment, 13 placebo",40.43%
same,Entering Intensive Care (%),"[2]; treatment group, Age >= 60",25%
same,Mass Median Aerodynamic Diameter,[3],4±0.16 μm
